Test results reported in article PMC11040670, “Mechanistic and Kinetic Insights into Cellular Uptake of Biomimetic Dinitrosyl Iron Complexes and Intracellular Delivery of NO for Activation of Cytoprotective HO-1” (JACS Au, 2024).

Key:
HMOX1 gene = experiment: Activation of HMOX1/HO-1, stated jointly for MSC/N2a/HCEC (incl. PTIO/ODQ); type: cell-based
Method: After treatment of (1) 100 μM of DNIC–COOH to MSC, (2) 100 μM of DNIC–COOH to N2a, (3) 75 μM of DNIC–COOH to HCEC, (4) 2.5 μM of DNIC–COOMe to MSC, (5) 10 μM of DNIC–COOMe to N2a, and (6) 1 μM of DNIC–COOMe to HCEC, respectively, the total RNA of the treated cells was extracted using TRIzol Reagent (Thermo Fisher Scientific) in order to assess the time-dependent change in the mRNA level of HO-1. After the synthesis of complementary DNA with the High-Capacity Reverse Transcription Kit, qPCR was conducted using Power SYBR Green PCR Master Mix with the StepOnePlus Real-Time PCR System (Thermo Fisher Scientific). The primer sequences were as follows: HMOX1 forward 5′-[…]-3′ and reverse 5′-[…]-3′; RPL13A forward 5′-[…]-3′ and reverse 5′- […]-3′; GAPDH forward 5′-[…]-3′ and reverse 5′-[…]-3′. The relative mRNA levels of target genes were determined by a comparative threshold cycle method and normalized to that of RPL13A (or GAPDH). The mRNA level of HO-1 in the MSC, N2a, and HCEC cells, respectively, that received the (1) sequential treatments of 1H-[1,2,4]oxadiazolo-[4,3-a]quinoxalin-1-one (ODQ, 10 μM for 1 h) and DNIC–COOH (100 μM in MSC for 3 h, 100 μM in N2a for 10 h, and 75 μM in HCEC for 6 h) or (2) cotreatment of 2-phenyl-4,4,5,5-tetramethylimidazoline-1-oxyl-3-oxide ([…]) and DNIC–COOH (100 μM in MSC for 3 h, 100 μM in N2a for 10 h, and 75 μM in HCEC for 6 h) was also evaluated under a similar procedure.

HCEC = experiment: Cytoprotection of HCEC against H2O2 oxidative stress; type: cell-based, human; conditions: HCEC pretreated 24 h with 75 μM DNIC–COOH, then H2O2
Method: Cell viability study of MSC, N2a, and HCEC cells with or without the treatment of DNIC–COOH was performed using a Cell Counting Kit-8 (IMT Formosa New Materials Co., Ltd., Taiwan) according to the manufacturer’s protocol. Briefly, cells were seeded into a 96-well plate at a density of 4 × 10^3 cells/well for MSC, 1 × 10^4 cells/well for N2a, and 8 × 10^3 cells/well for HCEC, respectively, and incubated overnight. On the next day, cells were treated with DNIC–COOH at different concentrations and incubated for 24 h. The culture medium was then removed before the cells were washed with DPBS. After addition of fresh medium containing CCK-8 solution to the cells and incubation for 1–3 h, the absorbance at 450 nm was then measured on a microplate reader (SpectraMax iD3, Molecular Devices, San Jose, CA) with a reference wavelength of 650 nm. […]
To investigate the capacity of DNIC preconditioning to protect the MSC cells against elevated oxidative stress, cells were pretreated with 2.5 μM of DNIC–COOMe or 100 μM of DNIC–COOH for 8 h before being incubated with 250 μM H2O2 for another 24 h. Cell viability was evaluated by live/dead staining or CCK-8 assay. In a similar manner, DNIC-induced cytoprotective effect in HCECs was evaluated through pretreatment of 1 μM of DNIC–COOMe or 75 μM of DNIC–COOH for 24 h.

deoxyMb = tested on: deoxyMb; parameters: method as in PMID 37533298; conditions: dinuclear DNIC, no Cys; cited from earlier work
metMb = biological target: T1, metMb (Equus caballus, UniProt P68082); parameters: method as in PMID 37533298; conditions: dinuclear DNIC, no Cys; cited from earlier work
T1 construct: purchased Sigma
T1 sequence (P68082 2-154 limits assumed): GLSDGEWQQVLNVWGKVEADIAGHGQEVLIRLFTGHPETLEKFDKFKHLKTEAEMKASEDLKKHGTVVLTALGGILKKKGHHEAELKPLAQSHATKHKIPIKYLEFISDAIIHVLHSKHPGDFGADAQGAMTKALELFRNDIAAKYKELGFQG

## O=[N][Fe]1([N]=O)[SH](CCC(=O)O)[Fe]([N]=O)([N]=O)[SH]1CCC(=O)O (stereo not shown) [DNIC–COOH, [(NO)2Fe(μ-SCH2CH2COOH)2Fe(NO)2]]
HMOX1 gene; at t = 3–10 h (abstract)
  activation of cytoprotective HO-1: 50–150 fold change
HMOX1 gene; cotreatment of PTIO to MSC/HCEC
  effect on transcriptional activation of HMOX1 gene by DNIC–COOH: no significant perturbation
HMOX1 gene; higher concentration of PTIO (100 μM) to N2a
  effect on transcriptional activation of HMOX1 gene by DNIC–COOH: reduced transcriptional activation
HMOX1 gene; pretreatment of ODQ to MSC/N2a/HCEC
  effect on transcriptional activation of HMOX1 gene by DNIC–COOH: no significant perturbation
HCEC
  survival under mimic oxidative stress condition: enhanced survival
deoxyMb
  nitrosylation of the Fe2+-porphyrin center in deoxyMb: efficient nitrosylation
metMb
  reactivity toward the Fe3+-porphyrin center in metMb: inert
